Data: patent US6413529B1, “Antimicrobial wipes which provide improved residual benefit versus gram negative bacteria” (The Procter & Gamble Company, priority 1999, dated 2002)

Test system: Microtox Acute Toxicity Reagent (Vibrio fischerio)
Test: Microtox Response Test (Microtox Response Index of anionic surfactant)
Assay type: cell-based
Conditions: pure anionic surfactant; EC50 for 50% decrease of bioluminescence, 5 minutes
Description: The biological activity/mildness of a pure surfactant can measured directly via a Microtox Response Test hereinafter described in the Analytical Methods section and can be reported as a Microtox Response Index. By “pure surfactant” it is meant a chemical composition consisting essentially of a single surfactant entity, wherein the entity has essentially one chain length, head group and salt counter ion. From a standpoint of high biological activity, preferred anionic surfactants of the antimicrobial cleansing compositions of the present invention have a Microtox Response Index of less that about 150, more preferably less than about 100 and most preferably less than about 50. […]
For surfactant compositions which are mixtures of surfactants rather than pure surfactants (this includes “commercial grade” surfactants which typically comprise mixtures of entities with different chain lengths and potentially have higher levels of impurities), the Microtox Response Index for any individual surfactant component is not a reliable measurement of biological activity or mildness. In the case of mixtures, the Microtox Index of each individual component can be determined and the weighted average used as the Index for the mixture if all the individual components of the mixture are known. […]

Molecule	Microtox Index [ppm]
CCCCCCCCCCCCOS(=O)(=O)O.N [ammonium lauryl sulfate]	1.0
ammonium laureth-3 sulfate	120
